Measurements taken from BindingDB's records for doi:10.1021/jm00020a026 (University of Michigan, 1995).
pIC50: −log10 of the molar value.

Assay: antiviral activity in Human immunodeficiency virus-1 as reverse transcriptase activity in culture supernatant

Going from NC(=O)c1cn(C2OC(CO)C(O)C2F)c2ncnc(N)c12 (stereo unspecified) [4-Amino-7-(3-fluoro-4-hydroxy-5-hydroxymethyl-tetrahydro-furan-2-yl)-7H-pyrrolo[2,3-d]pyrimidine-5-carboxylic acid amide] to NC(=S)c1cn(C2OC(CO)C(O)C2F)c2ncnc(N)c12 (stereo unspecified) [4-Amino-7-(3-fluoro-4-hydroxy-5-hydroxymethyl-tetrahydro-furan-2-yl)-7H-pyrrolo[2,3-d]pyrimidine-5-carbothioic acid amide], the pIC50 falls from 7.70 to 7.15 (0.55 log units). The first is the more potent here.

Going from N#Cc1cn([C@@H]2O[C@H](CO)[C@@H](O)[C@@H]2F)c2ncnc(N)c12 to N#Cc1cn([C@H]2O[C@H](CO)[C@@H](O)[C@@H]2F)c2ncnc(N)c12, the pIC50 falls from 4.92 to under 4.00. The first is the more potent here.

Going from N#Cc1c(Br)n([C@H]2O[C@H](CO)[C@@H](O)[C@@H]2F)c2ncnc(N)c12 to Cc1cn([C@H]2C[C@H](N=[N+]=[N-])[C@@H](CO)O2)c(=O)[nH]c1=O [1-((2R,4S,5S)-4-Azido-5-hydroxymethyl-tetrahydro-furan-2-yl)-5-methyl-1H-pyrimidine-2,4-dione], the pIC50 rises from 4.49 to 7.96 (3.47 log units). The second is the more potent here.
